Reference: paper PMC8424300, “Identification of novel microtubule inhibitors effective in fission yeast and human cells and their effects on breast cancer cell lines” (Open Biology, 2021)

How the values were obtained:
[1] = molecular target: T1, tubulin (colchicine-binding site) (Sus scrofa, UniProt P02550+P02554); assay: Fluorescence-based colchicine displacement assay; details: for fluorescence of the colchicine-tubulin complex: 2 µM tubulin + 2 µM colchicine set 100%
T1 construct: purchased Cytoskeleton, Inc
Procedure: Figure 6. […] Each value represents the mean ± s.e.m. of three independent experiments.
Reaction mixtures were excited at 380 nm and the emission was measured at 438 nm. Values were exported as Excel files and graphs were generated in Prism V9 GraphPad.

[2] = molecular target: T2, porcine brain tubulin heterodimer (Sus scrofa, UniProt P02550+P02554); assay: In vitro tubulin polymerization assay; format: biochemical; details: IC50 of tubulin polymerization
T2 construct: highly purified porcine brain tubulin heterodimer; purchased Cytoskeleton T240 (kit BK011P); host or cells: porcine brain tissue
Procedure: To determine whether the 12 compounds affected mitotic spindle organization by directly interfering with tubulin polymerization, we performed in vitro tubulin polymerization assays. […] Tubulin polymerization was monitored every 1 min by measuring fluorescence absorbance at 340 nm for 1 h.
Figure 3. […] Tubulin was incubated with 5 µM of the compounds and DMSO for 60 min at 37°C. The fluorescence increase was monitored every minute at 340 nm. […] (b). […] Nocodazole (NOC) was used as the control. (c). […] (d) The same experiment as (c) but carried out at a different time.
The Tubulin Polymerization HTS Assay Kit (Cytoskeleton, BK011P) was used according to the manufacturer's instructions. All components were added into a 96-well microtiter plate (Corning Costar, cat. no. 3686), then the tubulin reaction mixture was quickly added to the wells, and tubulin polymerization was initiated and monitored every 1 min at 37°C for 1 h by recording fluorescence of excitation wavelength at 340 nm and emission at 450 nm. The tubulin reaction mixture was composed of 80 mM PIPES (pH 6.9), and 1 mM MgCl2, 1 mM EGTA, 1 mM GTP and 2 mg ml^−1 of highly purified porcine brain tubulin heterodimer (Cytoskeleton, cat. no. T240).

[3] = system: fission yeast mutant strains (nda2-KM52, nda3-KM311, cdc25-22, cut14-208, act1-48); assay: Drug sensitivity of fission yeast mutants spotted on YE medium; format: cell-based, Schizosaccharomyces pombe; details: figure S3
Procedure: The Schizosaccharomyces pombe SAK933 strain (h90 ade6 leu1 ura4-D18 GFP-atb2≪kanr sid4-mcherry≪hygr caf5::bsdR pap1Δ pmd1Δ mfs1Δ bfr1Δ dnf2 Δ erg5::ura4+) [57] used for the phenotypic screening in this study was grown at 30°C in yeast extract (YE) medium containing adenine, leucine, uridine and histidine. A haploid wild-type strain 972 h^- and its derivative strains were used in the electronic supplementary material, figure S3: nda2-km52, nda3-km311 [58], cdc25-22 [59, 60], cdc14-208 [61] and act1-48 [62] spotted onto YE medium containing the same four supplements above and incubated for 3 days at 30°C.

MDR-sup fission yeast = assay: Phenotypic assay of microtubule organization in MDR-sup strain expressing GFP-atb2; format: cell-based, Schizosaccharomyces pombe; details: 5 µM compound for 3 h, living cells
Procedure: We have previously screened a collection of 10 371 small molecules to identify compounds that inhibit the growth of a multiple-drug-sensitive fission yeast strain (MDR-sup). We selected 248 compounds (2.4% of the total) that inhibited fission yeast cell growth rate by at least 50% (figure 1a) and subsequently conducted a phenotypic screen of these to identify drugs that affect microtubule organization (figure 1b). After the MDR-sup cells were treated with 5 µM of each compound for 3 h, microtubules were monitored using GFP tagged α-tubulin Atb2 and live-cell fluorescence microscopy. In untreated interphase cells, microtubules form long cytoplasmic arrays that run parallel to the long cellular axis, and in mitotic cells, microtubules form a bipolar spindle in the nucleus and the cytoplasmic microtubules disappear (figure 1c(i), arrow). […] This screen identified 34 compounds that induced cytological phenotypes indicative of defects in microtubule organization or function.
Figure 1. Phenotypic screening in MDR-sup fission yeast (a). Growth assay screening using MDR-sup strain. The optical density was measured with 20 µM of each compound and 248 compounds that gave at least 50% growth inhibition were used for further phenotyping marked by the red lines. Growth was normalized to DMSO-treated cells. (b) Schematic representation of the screening workflow. (c) Examples of the phenotypic assay using L1, P2 and B8 in the MDR-sup strain expressing GFP-atb2 (tubulin) are shown. Cells were incubated in 5 µM compound for 3 h and atb2 signals were detected in living cells. (i) Cells in absence of any compound. In interphase cells, α-tubulin Atb2 protein was detected in the nucleus and interphase microtubules, while mitotic spindles were detected in mitotic cells (arrows). (ii) In the presence of L1, microtubules were depolymerized and tubulin signals were detected distributed throughout the nucleus. (iii) In the presence of P2, short spindles were detected but anaphase spindles were not. (iv) In the presence of B8, interphase microtubules were not detected, while, dots were detected. […]

MCF-10A = assay: Viability dose-response in non-cancer mammary cell line; format: cell-based, human
Procedure: The sensitivity of the inhibitors L1, J3, A15 and M2 were evaluated in three breast cancer cell lines, (BT549, CAL51 and MB-157) and a non-cancer cell line from the human mammary gland, MCF-10A (figure 8). Drug sensitivity was determined by culturing breast cancer cell lines (black lines) and the non-cancer cell line (red line) with a range of concentrations of each compound, and viability was measured after 4 days of treatment in triplicate.
Figure 8. Dose–response curves in three cancer cell lines (BT549, CAL51 and MB-157) are shown in black and non-cancer cell line; MCF-10A is shown in red. They were subjected to a dose–response matrix of the tubulin inhibitor, L1, A15, M2 and J3, respectively. Viability relative to the vehicle control was measured […] after treatment. Mean ± s.e.m. for n = 3 experiments is shown.
Cells were plated in 384-well plates at a density of 800 cells per well in 22.5 µl of media. After 24 h, 2.5 µl drug was diluted in media and was added to each well. Following 5 days of incubation, viability was assessed using CellTiter-Glo (Promega) according to the manufacture's protocol. Luminescence in each well was measured using a Synergy Neo2 plate reader (BioTek).

T1 sequence (P02554 whole entry): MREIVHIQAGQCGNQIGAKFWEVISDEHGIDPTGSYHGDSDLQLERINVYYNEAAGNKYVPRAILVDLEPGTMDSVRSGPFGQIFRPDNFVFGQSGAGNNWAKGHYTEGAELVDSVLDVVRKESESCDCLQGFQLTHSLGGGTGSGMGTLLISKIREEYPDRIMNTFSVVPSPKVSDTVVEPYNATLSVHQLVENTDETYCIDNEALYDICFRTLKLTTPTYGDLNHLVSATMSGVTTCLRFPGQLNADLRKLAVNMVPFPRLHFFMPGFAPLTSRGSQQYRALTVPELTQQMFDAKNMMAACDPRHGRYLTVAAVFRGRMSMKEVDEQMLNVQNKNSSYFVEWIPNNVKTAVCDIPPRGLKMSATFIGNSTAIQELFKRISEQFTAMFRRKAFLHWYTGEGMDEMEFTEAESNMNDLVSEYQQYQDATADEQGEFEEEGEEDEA
T1 sequence (P02550 whole entry): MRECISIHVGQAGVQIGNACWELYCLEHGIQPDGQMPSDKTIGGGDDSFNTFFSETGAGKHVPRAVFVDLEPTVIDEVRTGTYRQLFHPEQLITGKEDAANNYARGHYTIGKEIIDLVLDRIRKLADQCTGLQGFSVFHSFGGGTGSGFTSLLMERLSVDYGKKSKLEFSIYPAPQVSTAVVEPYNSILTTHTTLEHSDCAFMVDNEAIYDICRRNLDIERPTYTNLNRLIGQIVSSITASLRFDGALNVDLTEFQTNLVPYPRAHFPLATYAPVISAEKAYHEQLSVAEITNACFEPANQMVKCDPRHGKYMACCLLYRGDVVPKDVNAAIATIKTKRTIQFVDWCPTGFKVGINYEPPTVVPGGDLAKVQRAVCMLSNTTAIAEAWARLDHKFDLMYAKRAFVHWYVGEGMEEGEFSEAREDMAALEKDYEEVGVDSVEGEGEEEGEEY
T2 sequence (P02554 whole entry): as the sequence (P02554 whole entry) above
T2 sequence (P02550 whole entry): as the sequence (P02550 whole entry) above

## COc1cc(Br)cc2c1OC(c1ccc3c(c1)OCO3)C([N+](=O)[O-])=C2 (stereo not drawn) [L1]
[1]; 5 µM L1
  fluorescence of the colchicine-tubulin complex: 87%
[1]; 10 µM L1
  fluorescence of the colchicine-tubulin complex: 71%
[1]; 50 µM L1
  colchicine-tubulin interaction: abolished the interaction between colchicine and tubulin complex completely
[2]; figure 3c, 37°C, 1 h
  IC50: 470 nM
[2]; figure 3d, same experiment carried out at a different time
  IC50: 460 nM
[3]
  drug sensitivity of cdc25-22, cut14-208 and act1-48 mutants: No such drug hypersensitivity
MDR-sup fission yeast
  microtubule phenotype (GFP-atb2 tubulin signal): microtubules are undetectable, and α-tubulin accumulates in the nucleus
MCF-10A; Homo sapiens, 96 h, MCF-10A, 4 days of treatment
  IC50: 9600 nM
MCF-10A; ratio non-cancer / cancer lines
  IC50 in MCF-10A relative to the three breast cancer cell lines: more than threefold higher
